Experimental data reported in US20050101595A1, “N-containing cycloalkyl-substituted amino-thiazole derivatives and pharmaceutical compositions for inhibiting cell proliferation and methods for their use” (PFIZER INC., priority 2003, published 2005).
Where a name gives a salt, the structure may show the parent alone. Read-outs that look alike come from different tables or passages of the source.

What was measured:
CDK2/Cyclin A = CDK2/Cyclin A (Homo sapiens, UniProt P24941); assay: Inhibition of CDK2/Cyclin A Retinoblastoma Kinase Activity; assay type: biochemical; settings: apparent Ki, CDK2/proteolyzed cyclin A, Rb fragment substrate, 25 μM ATP
Procedure, shortened: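 CDK2 (10 or 19 nM), insect-cell expressed, gel-filtration purified with truncated cyclin A; Rb fragment substrate; 25 μM ATP; 10 mM HEPES pH 7.4, 10 mM MgCl2; 30° C, 60 or 75 min; EDTA stop; phosphocellulose/nitrocellulose capture, phosphorimager. % inhibition vs DMSO control, no-enzyme background subtracted.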

[1] = molecular target: human CDK4 and genetically truncated (1-264) cyclin D3 (Homo sapiens, UniProt P11802); assay: Inhibition of CDK4/Cyclin D Retinoblastoma Kinase Activity; assay type: biochemical; settings: apparent Ki, CDK4/truncated cyclin D3, Rb fragment substrate, 25 μM ATP
Procedure, shortened: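 The enzyme complex (5 nM), expressed in co-infected insect cells, was incubated with recombinant Rb fragment, 25 μM radiolabelled ATP and 2% DMSO at 30 °C. Reactions were stopped with EDTA after 20 minutes, or 60 minutes for tight-binding inhibitors. Apparent Ki values came from competitive inhibition fits.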

HCT-116 cell line = assay: Inhibition of cell growth, tetrazolium salt (MTT) assay; assay type: cell-based; settings: Homo sapiens, HCT-116, 120 h, MTT, three to five days, read-out: HCT-116 IC50
Procedure, shortened: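 Growth inhibition by MTT reduction at 540 nm (0.2 mg/mL, 4 h at 37° C, formazan dissolved in DMSO), normalized to cells given only 0.5% v/v DMSO. HCT-116 cultures in McCoy's 5A were dosed 4 h post-plating and kept three to five days at 37° C, 5% CO2.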

human CDK4 and genetically truncated (1-264) cyclin D3, sequence (P11802 whole entry, the tested form may be a part): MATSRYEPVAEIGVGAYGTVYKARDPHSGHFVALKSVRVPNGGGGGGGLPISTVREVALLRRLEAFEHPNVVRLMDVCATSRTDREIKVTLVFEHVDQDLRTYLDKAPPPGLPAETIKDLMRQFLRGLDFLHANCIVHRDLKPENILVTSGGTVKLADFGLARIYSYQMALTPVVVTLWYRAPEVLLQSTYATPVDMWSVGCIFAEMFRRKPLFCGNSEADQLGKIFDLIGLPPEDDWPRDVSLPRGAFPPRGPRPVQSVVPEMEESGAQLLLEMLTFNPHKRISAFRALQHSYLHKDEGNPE
human CDK4 and genetically truncated (1-264) cyclin D3, sequence (P30281 1-264 partner): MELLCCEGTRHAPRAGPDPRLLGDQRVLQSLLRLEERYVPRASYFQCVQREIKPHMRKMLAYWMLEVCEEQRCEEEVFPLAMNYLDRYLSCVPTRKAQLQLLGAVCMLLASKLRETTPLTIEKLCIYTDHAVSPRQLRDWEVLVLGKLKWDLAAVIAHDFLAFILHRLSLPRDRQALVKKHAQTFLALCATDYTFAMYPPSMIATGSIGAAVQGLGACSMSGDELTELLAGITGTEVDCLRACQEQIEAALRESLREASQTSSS

| Compound | Ki (CDK2/Cyclin A) [nM] | Ki [1] [nM] | IC50 (HCT-116 cell line; first HCT-116 column (c4)) [nM] | IC50 (HCT-116 cell line; second HCT-116 column (c5)) [nM] |
| --- | --- | --- | --- | --- |
| N#C/C(=C\c1cccc(O)c1)C(=O)N1CCC(Nc2nc(N)c(C(=O)c3c(F)cccc3F)s2)CC1 [Example D13, 12(Z)-(1-{4-[4-Amino-5-(2,6-difluoro-benzoyl)-thiazol-2-ylamino]-piperidin-1-yl}-methanoyl)-3-(3-hydroxy-phenyl)-acrylonitrile Trifluoroacetic Acid Salt] | 24 | 1.8 | 1300 | 5000 |
| Cc1cc(C)cc(C(=O)N2CCC(Nc3nc(N)c(C(=O)c4c(F)cccc4F)s3)CC2)c1 [Example D14, {4-Amino-2-[1-(3,5-dimethyl-benzoyl)-piperidin-4-ylamino]-thiazol-5-yl}-(2,6-difluoro-phenyl)-methanone] | 120 | 19 | 14 | 41 |
| Cc1ccc(C(=O)N2CCC(Nc3nc(N)c(C(=O)c4c(F)cccc4F)s3)CC2)cc1C [Example D15, {4-Amino-2-[1-(3,4-dimethyl-benzoyl)-piperidin-4-ylamino]-thiazol-5-yl}-(2,6-difluoro-phenyl)-methanone] | 170 | 27 | 50 | 170 |
| COc1cc(C(=O)N2CCC(Nc3nc(N)c(C(=O)c4c(F)cccc4F)s3)CC2)cc(OC)c1C [Example D17, {4-Amino-2-[1-(3,5-dimethoxy-4-methyl-benzoyl)-piperidin-4-ylamino]-thiazol-5-yl-}(2,6-difluoro-phenyl)-methanone] | 69 | 18 | 57 | 160 |
| Nc1nc(NC2CCN(S(=O)(=O)Nc3ccccc3)CC2)sc1C(=O)c1c(F)cccc1F [Example E2, 4-[4-Amino-5-(2,6-difluoro-benzoyl)-thiazol-2-ylamino]-piperidine-1-sulfonic acid phenylamide] | 1.2 | 3.9 | 680 | 1300 |
| CN1CCN(S(=O)(=O)N2CCC(Nc3nc(N)c(C(=O)c4c(F)cccc4F)s3)CC2)CC1 [Example E3, {4-Amino-2-[1-(4-methyl-piperazine-1-sulfonyl)-piperidin-4-ylamino]-thiazol-5-yl}-(2,6-difluoro-phenyl)-methanone] | 12 | 5.4 | 330 | 780 |
| Nc1nc(NC2CCN(S(N)(=O)=O)CC2)sc1C(=O)c1c(F)cccc1F [Example E4, 4-[4-Amino-5-(2,6-difluoro-benzoyl)-thiazol-2-ylamino]-piperidine-1-sulfonic acid amide] | 2.7 | 14 | 570 | 1200 |
| CC(C)OC(=O)NS(=O)(=O)N1CCC(Nc2nc(N)c(C(=O)c3c(F)cccc3F)s2)CC1 [Example E5, [1-(4-{4-Amino-5-[1-(2,6-difluoro-phenyl)-methanoyl]-thiazol-2-ylamino}-piperidin-1-yl)-sulfonyl]-carbamic Acid Isopropyl Ester] | 38 | 170 | > 5000 | > 5000 |

Now from value to molecule:

| Ki (CDK2/Cyclin A) [nM] | Ki [1] [nM] | IC50 (HCT-116 cell line; first HCT-116 column (c4)) [nM] | IC50 (HCT-116 cell line; second HCT-116 column (c5)) [nM] | Compound |
| --- | --- | --- | --- | --- |
| 12 | 14 | 1400 | 4500 | Cc1noc(C)c1S(=O)(=O)N1CCC(Nc2nc(N)c(C(=O)c3c(F)cccc3F)s2)CC1 [Example F1] |
| < 5 | 1.9 | 1300 | 4000 | Cn1cnc(S(=O)(=O)N2CCC(Nc3nc(N)c(C(=O)c4c(F)cccc4F)s3)CC2)c1 [Example F2, 1-{4-Amino-2-[1-(i-methyl-1H-imidazole-4-sulfonyl)-piperidin-4-ylamino]-thiazol-5-yl}-1-(2,6-difluoro-phenyl)-methanone] |
| 2.9 | 5.9 | 180 | 480 | CS(=O)(=O)N1CCC(Nc2nc(N)c(C(=O)c3c(F)cccc3F)s2)CC1 [Example F3, 1-[4-Amino-2-(1-methanesulfonyl-piperidin-4-ylamino)-thiazol-5-yl]-1-(2,6-difluoro-phenyl)-methanone] |
| 4.1 | 2.8 | 260 | 590 | Nc1nc(NC2CCN(S(=O)(=O)Cc3ccccc3)CC2)sc1C(=O)c1c(F)cccc1F [Example F4, 1-[4-Amino-2-(1-phenylmethanesulfonyl-piperidin-4-ylamino)-thiazol-5-yl]-1-(2,6-difluoro-phenyl)-methanone] |
| < 1 | 1 | 500 | 1300 | CC(=O)Nc1ccc(S(=O)(=O)N2CCC(Nc3nc(N)c(C(=O)c4c(F)cccc4F)s3)CC2)cc1 [Example F5, N-(4-{4-[4-Amino-5-(2,6-difluoro-benzoyl)-thiazol-2-ylamino]-piperidine-1-sulfonyl}-phenyl)-acetamide] |
| 0.43 | 0.46 | 170 | 450 | Nc1nc(NC2CCN(S(=O)(=O)c3ccc(-c4ccccn4)s3)CC2)sc1C(=O)c1c(F)cccc1F [Example F6, 1-{4-Amino-2-[1-(5-pyridin-2-yl-thiophene-2-sulfonyl)-piperidin-4-ylamino]-thiazol-5-yl}-1-(2,6-difluoro-phenyl)-methanone] |
| 0.8 | 2.5 | 190 | 460 | COc1ccc(S(=O)(=O)N2CCC(Nc3nc(N)c(C(=O)c4c(F)cccc4F)s3)CC2)cc1 [Example F7, 1-{4-Amino-2-[1-(4-methoxy-benzenesulfonyl)-piperidin-4-ylamino]-thiazol-5-yl}-1-(2,6-difluoro-phenyl)-methanone] |
| < 1 | 3 | 160 | 290 | COc1ccc(S(=O)(=O)N2CCC(Nc3nc(N)c(C(=O)c4c(F)cccc4F)s3)CC2)cc1OC [Example F8, 1-{4-Amino-2-[1-(3,4-dimethoxy-benzenesulfonyl)-piperidin-4-ylamino]-thiazol-5-yl}-1-(2,6-difluoro-phenyl)-methanone] |
| 2 | 3.6 | 140 | 250 | N#Cc1ccccc1S(=O)(=O)N1CCC(Nc2nc(N)c(C(=O)c3c(F)cccc3F)s2)CC1 [Example F9, 2-{4-[4-Amino-5-(2,6-difluoro-benzoyl)-thiazol-2-ylamino]-piperidine-1-sulfonyl}-benzonitrile] |
| 7.9 | 5.6 | 280 | < 5000 | COC(=O)c1sccc1S(=O)(=O)N1CCC(Nc2nc(N)c(C(=O)c3c(F)cccc3F)s2)CC1 [Example F10, 3-{4-[4-Amino-5-(2,6-difluoro-benzoyl)-thiazol-2-ylamino]-piperidine-1-sulfonyl}-thiophene-2-carboxylic acid methyl ester] |
| 1.6 | 1.1 | 180 | 450 | CC(C)S(=O)(=O)N1CCC(Nc2nc(N)c(C(=O)c3c(F)cccc3F)s2)CC1 [Example F11, 1-{4-Amino-2-[1-(propane-2-sulfonyl)-piperidin-4-ylamino]-thiazol-5-yl}-1-(2,6-difluoro-phenyl)-methanone] |
| 0.37 | 1.3 | 190 | 500 | CS(=O)(=O)c1ccc(S(=O)(=O)N2CCC(Nc3nc(N)c(C(=O)c4c(F)cccc4F)s3)CC2)cc1 [Example F12, 1-{4-Amino-2-[1-(4-methanesulfonyl-benzenesulfonyl)-piperidin-4-ylamino]-thiazol-5-yl}-1-(2,6-difluoro-phenyl)-methanone] |
| 8.7 | 5.8 | 610 | 2600 | Nc1nc(NC2CCN(S(=O)(=O)c3cc(Cl)sc3Cl)CC2)sc1C(=O)c1c(F)cccc1F [Example F13, 1-{4-Amino-2-[1-(2,5-dichloro-thiophene-3-sulfonyl)-piperidin-4-ylamino]-thiazol-5-yl}-1-(2,6-difluoro-phenyl)-methanone] |
| 2 | 14 | < 5000 | < 5000 | Nc1nc(NC2CCN(S(=O)(=O)c3ccc(C(=O)O)cc3)CC2)sc1C(=O)c1c(F)cccc1F [Example F14, 4-{4-[4-Amino-5-(2,6-difluoro-benzoyl)-thiazol-2-ylamino]-piperidine-1-sulfonyl}-benzoic Acid] |
| 2.8 | 3.4 | 410 | 1200 | Cc1ccc(S(=O)(=O)N2CCC(Nc3nc(N)c(C(=O)c4c(F)cccc4F)s3)CC2)cc1 [Example F15, {4-Amino-2-[1-(toluene-4-sulfonyl)-piperidin-4-ylamino]-thiazol-5-yl}-(2,6-difluoro-phenyl)-methanone] |
| < 1 | 1.4 | 70 | 230 | Nc1nc(NC2CCN(S(=O)(=O)c3ccc(F)cc3)CC2)sc1C(=O)c1c(F)cccc1F [Example F17, 1-{4-Amino-2-[1-(4-fluoro-benzenesulfonyl)-piperidin-4-ylamino]-thiazol-5-yl}1-(2,6-difluoro-phenyl)-methanone] |
